Source: patent publication US20230272055A1, “ANTI-MUTANT CALRETICULIN (CALR) ANTIBODIES AND USES THEREOF” (Incyte Corporation, priority 2021, published 2023)

Test system: Ba/F3-TPOR/mutCALR type 1 engineered cells
Test: Cell proliferation with antibody and/or ruxolitinib, mutCALR Type 1
Assay type: cell-based
Settings: ruxolitinib alone at 50 nM; 72 hours; dotted line of FIG. 10 (Type 1 and Type 2 panels); read-out: inhibition of the level of oncogenic cell proliferation
Protocol: To test the ability of anti-mutCALR antibodies to potentiate the therapeutic response of the JAK1/2 inhibitor ruxolitinib, Ba/F3 cells were engineered to express MPL+mutCALR Type 1 (52 bp deletion) or MPL+mutCALR Type 2 (5 bp insertion) as described above. Cells were plated at 5,000 cells per well in RPMI 1640+2% FBS, treated with 50 nM of ruxolitinib and/or anti-mutCALR antibodies. Cells were incubated for 72 hours followed by assessment of cell viability using the CellTiter-Glo Luminescent Cell Viability Assay (Promega, Madison, Wis.) and Top Count (Perkin Elmer, Boston, Mass.) or Pherastar (BMG Labtech, Ortenberg, Germany) for luminescence quantification. Ruxolitinib used at a concentration of 50 nM inhibited the level of oncogenic cell proliferation by approximately 20% (dotted line).

Compound: N#CC[C@H](C1CCCC1)n1cc(-c2ncnc3[nH]ccc23)cn1 [Ruxolitinib, ruxolitinib, reference compound]
- inhibition at 0.05 µM: ~20%
